# Values of other authors, collected in patent publication US6830755B2, “Method for relaxing human beings using personal care compositions” (Johnson & Johnson Consumer Companies, Inc., priority 1999, dated 2004).
# System: salivary cortisol
# Conditions: exposure to fragrance before stressful arithmetic
compound,measurement,value
Cc1c[nH]c2ccccc12 [skatole],effect on stress induced release of cortisol (in words),had the opposite effect
